SMILES strings stand for the structures. Where two headings read alike, the source gives them in different places. Some results are limits rather than exact numbers.

One test concerns T1, EcOMT1.
T1 construct: gene OMT1; full-length
Nature of the test: methyltransferase assay, RP-HPLC of pinostrobin formed, Michaelis-Menten fit. The format is biochemical, Eucalyptus croajingolensis. The note with it: crude recombinant E. coli extract; SAM; 50 mM potassium phosphate pH 7, 30 °C; read-out: apparent Km app.

A further test deals with T2, EmOMT1.
T2 construct: gene OMT1; full-length
The test is described as follows: methyltransferase assay, RP-HPLC, extrapolated non-linear regression. Format: biochemical, Eucalyptus mitchelliana. Particulars: crude recombinant E. coli extract, SAM, 50 mM potassium phosphate pH 7, 30 °C, 16 h incubation needed for product, read-out: apparent Km.

A further test relates to T3, EnOMT1.
T3 construct: gene OMT1; full-length, 349 residues; E. coli BL21 (DE3)
Nature of the test: methyltransferase assay, RP-HPLC of pinostrobin formed, Michaelis-Menten fit. Format: biochemical, Eucalyptus nitida. Particulars: crude recombinant E. coli extract, 50 mM potassium phosphate pH 7, 30 °C, read-out: apparent Km.

For `O=C1C[C@@H](c2ccccc2)Oc2cc(O)cc(O)c21` [pinocembrin], the Michaelis-Menten constant (Km) – broadly, the concentration of substrate that gives half-maximal velocity – with EcOMT1 was 2550 ± 380 nM; in the test on EmOMT1 it was more than 800 µM; in the test with EnOMT1 (100 μM SAM, kcat from His-affinity purified enzyme) it was 2.05 ± 0.16 µM.

On to `C[S+](CC[C@H](N)C(=O)O)C[C@H]1O[C@@H](n2cnc3c(N)ncnc32)[C@H](O)[C@@H]1O` (stereo partly shown) [S-adenosylmethionine], for which the Km in the test on EnOMT1 (50 μM pinocembrin, methyl donor) was determined as 4.99 ± 0.29 µM.

The record behind these values is PMC8954846, “Molecular Characterisation of Flavanone O-methylation in Eucalyptus” (International Journal of Molecular Sciences, 2022).
